The values below are quoted from earlier work in patent publication US7691896B2, “Analogs of salinosporamide A” (President and Fellows of Harvard College, priority 2005, dated 2010).

Each structure is given as a SMILES string. Peptide text beside a SMILES is read from it. * marks the point of attachment. Cbz = O=C(OCc1ccccc1)*

The test system of the data set is PC12 cells. Conditions: Tsubuki et al. 1993.

In the case of `CC(C)C[C@@H](C=O)NC(=O)[C@H](CC(C)C)NC(=O)[C@H](CC(C)C)NC(=O)OCc1ccccc1` [benzyloxycarbonyl (Z)-Leu-Leu-leucinal] (Cbz-Leu-Leu-Leu-aldehyde), the “optimal concentration inducing neurite outgrowth” value is on record as 30 nM.
